Test results taken from patent US7939623B2, “Composition containing flavan compound” (Toyo Shinyaku Co., Ltd., priority 2004, dated 2011).

Test: Evaluation for coagulation-precipitation of flavan compounds and proteins (peptides), Reference Example
Format: physicochemical
Parameters: key: +: The precipitation was remarkably observed; ±: The precipitation was slightly observed; −: Not observed
Conditions: room temperature, one week
Description: Then, an aqueous solution of each of the pine bark extract, the proanthocyanidin dry powder, and epigallocatechin (produced by Roche Vitamins Japan K.K.) was prepared such that a final concentration was 0.2 wt %, as a first liquid. Separately, collagen (having an average molecular weight of 300 thousands: produced by KOKEN CO., LTD), Nippi Peptide PA-100 (having an average molecular weight of 10,000: produced by Nippi, incorporated), Collagen peptide DS (having an average molecular weight of 7,000: produced by Kyowa. […] At room temperature, 1 mL of first liquid and 1 mL of second liquid were mixed. The resultant liquid mixture was allowed to stand at room temperature for one week, and it was visually observed whether or not precipitation or suspension was caused in the liquid mixture.

[1] = second liquid: collagen average MW 300,000
[2] = second liquid: collagen peptide average MW 1,000
[3] = second liquid: collagen peptide average MW 3,000
[4] = second liquid: collagen peptide average MW 5,000
[5] = second liquid: collagen peptide average MW 7,000
[6] = second liquid: collagen peptide average MW 10,000

Epigallocatechin gallate
Precipitation (0.2 wt % first liquid 1 mL + 1 mL 10.0 wt % second liquid: glycine (MW 75), visual): −
Precipitation [1]: +
Suspension [1]: +
Precipitation [2]: −
Suspension [2]: −
Precipitation [3]: −
Suspension [3]: −
Precipitation [4]: −
Suspension [4]: −
Precipitation [5]: −
Suspension [5]: −
Precipitation [6]: ±
Suspension [6]: +
Suspension (second liquid: glycine (MW 75)): −
